The test system of data set [1] is HT-29 cells. As to the kind of experiment: MTT cell viability assay, HT29. It is filed as cell-based. The settings on record: Homo sapiens; HT-29, MTT, 24 h. How it is done:
The human colon cancer cell lines COLO 205, HCT116 and HT29 were purchased from the American Type Culture Collection (Rockville, Md.). Cell lines were grown in RPMI1640 supplemented with 10% heat inactivated fetal bovine serum (GIBCO BRL, Grand Island, N.Y.), 100 units/mL of penicillin, 100 μg/mL of streptomycin), 2 mM L-glutamine (GIBCO BRL, Grand Island, N.Y.), and were kept at 37° C. in a humidified 5% CO2 incubator. Pterostilbene and 3-HPT were dissolved in dimethyl sulfoxide (DMSO, as final concentration of 0.05%). Cells were treated with 0.05% DMSO as vehicle control.
Cell viability was assayed by 3(4,5-dimethylthiazol-2-yl)-2,5-diphenyltetrazolium bromide (MTT). Briefly. COLO 205, HCT116 and HT29 cells were plated at a density of 2×10^2 cells/mL into 96 well plates. After overnight growth, cells were treated with a series of concentrations of pterostilbene or 3-hydroxypterostilbene for 24 h. The final concentrations of DMSO in the culture medium were <0.05%. At the end of treatment, 0.2% MTT was added and cells were incubated for a further 4 h. Cell viability was determined by scanning with an ELISA reader with a 570 nm filter.
Background: Formazan colour is commonly taken as a measure of viable cells.

Data set [2] deals with COLO 205 cells. Put plainly: Flow cytometry analysis of subG1 cell population (PI staining). The settings on record: 24 h. It is filed as cell-based, human. How it is done:
For subG1 cell population analysis, COLO 205 cells (2×10^5 cells/mL) were cultured in 12 well and treatment with various concentrations of pterostilbene or 3-hydroxypterostilbene for 24 h. The cells were then harvested, washed with PBS, re-suspended in 200 μL of PBS, and fixed in 800 μL of iced 100% ethanol at […]. After being left to stand overnight, the cell pellets were collected by centrifugation, re-suspended in 1 mL of hypotonic buffer (0.5% Triton X100 in PBS and 0.5 μg/mL RNase) with PI (50 μg/mL) and incubated at 37° C. in the dark for 30 min. Fluorescence emitted from the PIDNA complex was quantitated after excitation of the fluorescent dye by FACScan cytometry (Becton Dickinson, San Jose, Calif.). […] The results indicated a higher apoptotic potential of 3-hydroxypterostilbene for COLO 205 cells.
Background: Flow cytometry measures light scatter and fluorescence of single cells or particles in a stream.

The test system of data set [3] is PARP, DFF-45, pro-caspase 8 and pro-caspase 9 in COLO 205 cells. Put plainly: Western blotting of PARP, DFF-45, pro-caspase 8 and pro-caspase 9 cleavage. It is filed as cell-based, human. The settings on record: COLO 205 cell lysates. How it is done:
Western blotting analysis was performed as follows. The total proteins of COLO 205 cells were extracted via addition of gold lysis buffer (50 mM TrisHCl, pH 7.4; 1 mM NaF; 150 mM NaCl; 1 mM EGTA; 1 mM phenylmethanesulfonyl fluoride; 1% NP40; and 10 μg/mL leupeptin) to the cell pellets on ice for 30 min, followed by centrifugation at 10,000×g for 30 min at 4° C. The total proteins were measured by BioRad Protein Assay (BioRad Laboratories, Munich, Germany). The samples (50 μg of protein) were mixed with 5× sample buffer containing 0.3 M TrisHCl (pH 6.8), 25% 2mercaptoethanol, 12% sodium dodecyl sulfate (SDS), 25 mM EDTA, 20% glycerol, and 0.1% bromophenol blue. The mixtures were boiled at 100° C. for 5 min and were subjected to 10% SDS polyacrylamide minigels at a constant current of 20 mA. Electrophoresis was then carried out on SDSpolyacrylaniide gels. Proteins on the gel were electrotransferred onto an immobile membrane (PVDF; Millipore Corp., Bedford, Mass.) with transfer buffer composed of 25 mM TrisHCl (pH8.9), 192 mM glycine, and 20% methanol. The membranes were blocked with blocking solution containing 20 mM TrisHCl, and then immunoblotted with different primary antibodies and β actin. The blots were rinsed three times with PBST buffer (0.2% Tween 20 in 1× PBS buffer) for 10 min each. Then blots were incubated with 1:5000 dilution of the horseradish peroxidase (HRP) conjugated secondary antibody (Zymed Laboratories, San Francisco, Calif.) and then washed again three times with PBST buffer. The transferred proteins were visualized with an enhanced chemi-luminescence detection kit (ECL Amersham Pharmacia Biotech, Buckinghamshire, UK). The densities of the bands were quantified with a computer densitometer (AlphaImager™ 2200 System Alpha densitometer. Innotech Corporation, San Leandro, Calif.). […] The pro-caspase 8 cleavage by 3-HPT was moderate (FIG. 12).
(A western blot detects proteins with antibodies after separation by electrophoresis.)

Data set [4] relates to caspase 3 activity in COLO 205 cells. As to the kind of experiment: Fluorogenic caspase induction assay. The settings on record: COLO 205, after 24 hours of treatment. It is filed as cell-based, human. The procedure:
The caspase 3, 8 and 9 induction activity in protein extractions of COLO 205 cells was determined by a fluorogenic assay (Promega's CaspACE Assay System, Madison, Wis.). Briefly, 50 μg of total protein, as determined by the BioRad protein assay kit (BioRad Laboratories), was incubated with 50 μM substrate Ac-Asp-Glu-Val-Asp-methylcoumaryl-7-amine (caspase3 specific substrate), Ac-Ile-Glu-Thr-Asp-AMC ([…]) (caspase 8 specific substrate), or Ac-Leu-Glu-His-Asp-AMC (Ac-LEHD-AMC) (caspase 9 specific substrate) at 30° C. for 1 h. The release of methylcoumaryl-7-amine was measured by excitation at 360 nm and emission at 460 nm using a fluorescence spectrophotometer (ECLIPSE, Varian, Palo Alto, Calif.).

For data set [5], the system named is COLO 205 cells. As to the kind of experiment: Chloroquine (CQ) pretreatment, MTT viability and subG1 analysis. The data set is classed as cell-based. The settings on record: COLO 205, 25 μM CQ 1 h then 50 μM for 24 h. How it is done: Cells were pretreated with 25 μM CQ for 1 h before treatment with 50 μM of pterostilbene or 3-hydroxypterostilbene for 24 h. Cell viability was determined by MTT assay. SubG1 cell population (%) was analyzed and quantified after Propidium iodide (PI) staining followed by flow cytometry.

The subject of data set [6] is PC-3 cell lines. As to the kind of experiment: Microscopic morphological changes of PC-3 cells. The data set is classed as cell-based, human. The settings on record: PC-3, 2.5-20 μM, 100× phase contrast. The procedure: The morphological changes evident in PC-3 cell lines treated with graded concentrations of 3-HPT (2.5 μM, 5 μM, 10 μM and 20 μM of 3-HPT) as viewed microscopically (100× under inverted stage microscope equipped with phase contrast) indicated cell cytotoxicity starting at a concentration of 5 μM 3-HPT (FIG. 2).

Data set [7] relates to Bcl-xL and Bax in PC-3 cells. Put plainly: Western blot of Bcl-xL and Bax expression. It is filed as cell-based, human. The settings on record: PC-3, 10 μM, different time intervals.
For data set [8], the system named is multi drug resistant and BCR-ABL-expressing leukemia cells. The settings on record: Tolomeo et al. 2005; cited from earlier work.

The source of these data is US20160058712A1, “3-HYDROXYPTEROSTILBENE AND THERAPEUTIC APPLICATIONS THEREOF” (priority 2014, published 2016).

As usually defined, the IC50 is the concentration that inhibits the measured activity by half. A lower IC50 goes with greater potency in that assay. As to `COc1cc(/C=C/c2ccc(O)c(O)c2)cc(OC)c1` [3-hydroxypterostilbene, 3,4-dihydroxy-3′,5′-dimethoxy-trans-stilbene], the IC50 in data set [1] was 70.9 ± 1 µM. In data set [2] (5 μM), the “percentage of apoptotic COLO 205 cells (subG1)” value (from here on “percentage”) stood at 7.2%. For the same compound, the “percentage” value in data set [2] (10 μM) amounted to 9.3%. For the same compound, the “percentage” value in data set [2] (25 μM) was 20.1%. Also, the “percentage” value in data set [2] (50 μM) is reported as 36.3%. For the same compound, in data set [3], the DFF45 protein degradation entry is on record as “induced DFF45 protein degradation”, the “pro-caspase 8 cleavage” value is recorded as “moderate” and the “pro-caspase 9 cleavage” value is “much better than that exemplified by pterostilbene”. Besides, the “degradation of PARP” value in data set [3] (compared with pterostilbene) is on record as “markedly caused the degradation of 116 kDa PARP into 85 kDa fragments”. The “increase in caspase 3 activity” value in data set [4] is “approximately 2.4 fold”. For the same compound, in data set [5], the “cytotoxicity after CQ pretreatment” value is “significant increase cytotoxicity”. In addition, the “concentration at which cell cytotoxicity starts (morphological changes)” value in data set [6] is listed as 5 μM. Moreover, in data set [7], the “Bax (pro-apoptotic protein) expression” value is “upregulates” and the “Bcl-xL (anti-apoptotic protein) expression” value is reported as “clearly down-regulates”. In addition, the “apoptosis induction in leukemia cells” value in data set [8] was “effective apoptosis-inducing agents”.
